Measured values as given in patent US20220008425A1, “Pharmaceutical Composition for Treating B-Cell Lymphoma” (FUNDAN UNIVERSITY SHANGHAI CANER CENTER, priority 2018, published 2022).
Entries after “also recorded” stand apart in the source; their conditions may differ.

Columns and labels:
[1] = system: acute promyelocytic leukemia (APL); conditions: APL patients; ATRA alone; cited from earlier work
[2] = system: NU-DUL-1-RCHO cells; conditions: 48 hours
Method: Further, we constructed LY8 and NU-DUL-1 cells resistant to chemotherapeutic drugs. Briefly, LY8-ORI and NU-DUL-1-ORI cells were treated with doxorubicin (Selleck Chemicals, Houston, Tex.) and vincristine (Selleck Chemicals, Houston, Tex.) at a clinical ratio of 50:1.4 by increasing the concentration. […] These cells were then treated with 2 μg/mL of 4-hydroperoxycyclophosphamide (4-HC) (Santa Cruz Biotechnology, Inc., Santa Cruz, Calif.) every 21 days for 3 cycles. The obtained CHO-resistant cells are referred to as LY8-CHO and NU-DUL-1-CHO, respectively. CHO-resistant cells were treated with doxorubicin, vincristine, and 4-HC every 22 days to maintain drug tolerance to CHO. […] To maintain RCHO resistance, LY8-RCHO cells and NU-DUL-1-RCHO cells were treated with 32 μg/mL of rituximab containing 20% (v/v) of NHS every 22 days, followed by treatment with doxorubicin, vincristine, and 4-HC. After 48 hours of treatment with doxorubicin, vincristine and 4-HC, drug resistance to CHO and RCHO was determined by a series of CCK-8 assays.
Cells were seeded in a 96-well plate at a density of 1×10^4/100 μL/well. Cells were pretreated with IPI-145, abemaciclib, AZD4547, PF-573228, R788, or saracatinib at increasing concentrations with or without CHO for 48 hours prior to performing CytoTox-Glo™ cytotoxicity assay. We performed cytotoxicity assay by using a CytoTox-Glo™ cytotoxicity assay kit (Promega Inc., Madison, Wis.) according to their instructions. Briefly, 50 μL of CytoTox-Glo™ cytotoxicity assay reagent was added to all wells, mixed by orbital shaking, and then incubated for 15 minutes at room temperature. Luminescence of experimental dead cells was detected with a Synergy HT microplate reader (BioTek, Biotek Winooski, Minn.), wherein 50 μL of lysate was added to all wells, mixed and incubated for 15 minutes at room temperature prior to detection of total luminescence. Cytotoxicity was calculated according to the following formula: Cytotoxicity (%)=Experimental dead cell luminescence/Total luminescence×100%.

[3] = system: NU-DUL-1-RCHO cells; test: CDC assay (rituximab-mediated complement-dependent cytotoxicity); assay type: cell-based, human; conditions: pre-treated with inhibitor 24 hours, then rituximab and 20% NHS 2 hours
Method: We constructed LY8 cells and NU-DUL-1 cells that are resistant to rituximab-mediated complement-dependent cytotoxicity (CDC). Briefly, original LY8 (LY8-ORI) cells and original NU-DUL-1 (NU-DUL-1-ORI) cells were treated with rituximab containing 20% (v/v) of NHS (Roche, Basel, Switzerland) with a concentration of gradually increasing from 4 μg/mL to 32 μg/mL to construct drug-resistant cells. […] Cytolysis induced by CDC was evaluated by detection of positive cells stained with propidium iodide (PI) through fluorescence activated cell sorting (FACS).

[4] = system: AKT phosphorylation, SOX2, FGFR1/2 and CSC-associated molecules in NU-DUL-1-RCHO cells; test: Immunoblot analysis; assay type: cell-based, human
[5] = system: NU-DUL-1-RCHO cells; test: Aldefluor analysis (ALDH1+ cells); assay type: cell-based, human
Method: ALDH1 is a selectable marker for a variety of normal and cancer stem cells, including hematopoietic stem cells. Therefore, we assessed the number of cancer stem cells in hematopoietic malignancies by detecting ALDH1 positive cells. As previously described, we used an ALDEFLUOR™ kit (StemCell Technologies, Vancouver, BC, CA) to detect populations with high ALDH1 activity. Briefly, 1×10^6 cells were suspended in 1 mL of assay buffer containing 1 μM of BAAA, a substrate of […]. Suspended cells were then equally divided into two samples, one as a negative control and the other as a test sample. To form the negative control, […] of DEAB, a specific ALDH inhibitor, was added to one equally-divided sample. Cells were then incubated at 37° C. for 30 minutes prior to flow cytometry analysis.

[6] = system: NU-DUL-1-RCHO cells; test: EdU cell proliferation assay; assay type: cell-based, human; conditions: 1 μM, time point (48 or 120 hours) not given
Method: RCHO-resistant DLBCL cells were pretreated with duvelisib, abemaciclib, or AZD4547 at a concentration of 1 μM for 48 or 120 hours prior to EdU assay. For 120 hours of the study, the medium was replaced with a fresh medium containing 1 μM of inhibitor at 48 hours. EdU cell proliferation assay was performed by using a cell-light EdU Apollo643 in vitro flow cytometry kit (RiboBio Inc., Guangzhou, China) according to its instructions. Next, we assayed EdU staining positive cells on a Cytomics FC500 MPL flow cytometer (Beckman Coulter, Brea, Calif.).

[7] = system: NU-DUL-1-RCHO-Luc cells; test: Transplantation model, bioluminescence tumor growth and survival; assay type: in vivo; conditions: SCID mice bearing NU-DUL-1-RCHO-Luc cells
From the text: Construction of a transplantation model: we transduced LY8-RCHO cells and NU-DUL-1-RCHO cells with lentiviruses overexpressing the firefly luciferase gene to generate stable cells expressing firefly luciferase, referred to as LY8-RCHO-Luc cells and NU-DUL-1-RCHO-Luc cells, respectively. 8-week-old female SCID mice were purchased from SLAC (Shanghai laboratory animal center). The LY8-RCHO-Luc cells and NU-DUL-1-RCHO-Luc cells were resuspended in PBS prior to intraperitoneal injection of 1.5×10^7 cells per mouse. After intraperitoneal injection of the LY8-RCHO-Luc cells, mice were randomized into 6 groups (7 mice in every group) and given saline, R-CHOP, duvelisib, abemaciclib, R-CHOP+duvelisib, and R-CHOP+abemaciclib, respectively. Mice inoculated with the NU-DUL-1-RCHO-Luc cells were randomly divided into 6 groups (7 mice in every group), and were given saline, R-CHOP, duvelisib, AZD4547, R-CHOP+duvelisib, and R-CHOP+AZD4547, respectively. The drug dosing method based on one course of clinical use is shown in Table 1; the R-CHOP regimen was clinically used to treat DLBCL, while duvelisib, abemaciclib, and AZD4547 were tested in clinical trials (associated NCT numbers are NCT02576275, NCT01739309, and […], respectively). Tumor growth was monitored by bioluminescence at day 50 and day 90 after inoculation. For in vivo luminescence imaging, D-luciferin (Promega, Madison, Wis.) was intraperitoneally injected into mice (150 mg/kg). After 10 minutes, the mice were anesthetized by intraperitoneal injection of pentobarbital (50 mg/kg) and then their bioluminescence intensity was examined by using an In Vivo MS FX PRO system (Bruker Corporation, Billerica, Mass.). Luminescence images were captured with an exposure time of 30 seconds and the signal intensity of the tumor was measured by using Bruker MI software. The survival time of each mouse was recorded. Surviving mice were euthanized and dissected 120 days after inoculation and no intraperitoneal tumors were found. Tumor tissue was collected from moribund mice and fixed with 4% formalin. All animal experiments were performed in strict accordance with the experiment protocol approved by the animal ethics committee of Shanghai school of medicine of Fudan university.

[8] = system: SOX2 in tumor tissues grown from NU-DUL-1-RCHO-Luc cells; test: SOX2 immunohistochemical staining of tumor tissues from the transplantation model; assay type: in vivo, SCID mice; conditions: tumors from NU-DUL-1-RCHO-Luc cells; compared with saline control
From the text: Construction of a transplantation model: we transduced LY8-RCHO cells and NU-DUL-1-RCHO cells with lentiviruses overexpressing the firefly luciferase gene to generate stable cells expressing firefly luciferase, referred to as LY8-RCHO-Luc cells and NU-DUL-1-RCHO-Luc cells, respectively. 8-week-old female SCID mice were purchased from SLAC (Shanghai laboratory animal center). The LY8-RCHO-Luc cells and NU-DUL-1-RCHO-Luc cells were resuspended in PBS prior to intraperitoneal injection of 1.5×10^7 cells per mouse. After intraperitoneal injection of the LY8-RCHO-Luc cells, mice were randomized into 6 groups (7 mice in every group) and given saline, R-CHOP, duvelisib, abemaciclib, R-CHOP+duvelisib, and R-CHOP+abemaciclib, respectively. Mice inoculated with the NU-DUL-1-RCHO-Luc cells were randomly divided into 6 groups (7 mice in every group), and were given saline, R-CHOP, duvelisib, AZD4547, R-CHOP+duvelisib, and R-CHOP+AZD4547, respectively. […] Tumor growth was monitored by bioluminescence at day 50 and day 90 after inoculation. For in vivo luminescence imaging, D-luciferin (Promega, Madison, Wis.) was intraperitoneally injected into mice (150 mg/kg). […] Luminescence images were captured with an exposure time of 30 seconds and the signal intensity of the tumor was measured by using Bruker MI software. The survival time of each mouse was recorded. […]
Tumor tissues from patients or animal models were fixed with 4% formalin, embedded in paraffin and sectioned. […] Immunoreactivity was then detected by using a GTVision III immunohistochemical detection kit (GK500705; Gene Tech Inc., Shanghai, China) according to its instructions. Quantitative scoring of immunostaining for SOX2, p-AKT, CDK6, FGFR1 and FGFR2 was performed on three independent sections under the microscope, according to the formula: score=3 (strong positive)×percentage+2 (medium positive)×percentage+1 (weak positive)×percentage+0 (negative)×percentage.

Row | SMILES | complete remission rate [1] | cytotoxicity (induction of cell death), inhibitor used alone ([2]; inhibitor alone at increasing concentrations) | reversal of resistance to CHO (cytotoxicity of CHO), inhibitor co-treated with CHO ([2]; inhibitor at increasing concentrations with CHO) | effect on resistance to R-mediated CDC [3] | levels of CSC-associated molecules (OCT4, NANOG, KLF4, c-MYC, CD34, CD133) [4] | proportion of ALDH1+ cells (CSCs) [5] | cell proliferation (EdU incorporation) [6] | tumor growth (total photon flux) ([7]; inhibitor combined with R-CHOP, dosing per Table 1) | survival time ([7]; inhibitor combined with R-CHOP, experiment ended at day 120) | survival time ([7]; regimen or inhibitor used alone, dosing per Table 1) | SOX2 expression level in tumor tissue (IHC) [8]
1 | CC1=C(/C=C/C(C)=C/C=C/C(C)=C/C(=O)O)C(C)(C)CCC1 [ATRA, all-trans retinoic acid] | about 85% | – | – | – | – | – | – | – | – | – | –
2 | COc1cc(CCc2cc(NC(=O)c3ccc(N4C[C@@H](C)N[C@@H](C)C4)cc3)n[nH]2)cc(OC)c1 [AZD4547] | – | negligible effect on induction of cell death; also recorded: only negligible cytotoxicity on drug-resistant cells | restored sensitivity of RCHO-resistant cells to CHO; also recorded: significantly enhanced cytotoxicity of CHO | exacerbates resistance to R-mediated CDC | also reduced their levels but to a greatly reduced extent compared with duvelisib | significantly reduced ALDH1+ subpopulations in NU-DUL-1-RCHO cells, but to a greatly reduced extent compared with duvelisib | promoted proliferation of NU-DUL-1-RCHO cells due to involvement in inhibition of PI3K/AKT signaling, but to a lesser extent than PI3K inhibition | completely inhibit tumor growth | prolong the survival time to the end of the experiment at day 120 | significantly prolonged the survival time | significantly reduced the expression levels of SOX2 compared with a saline control
